The results in this text go back to ChEMBL document CHEMBL1201862, “PubChem BioAssay data set” (2004).

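Protocol summary: plate cells (96-well), add compound at 5 concentrations, incubate 48 h, interpolate endpoints linearly. GI50 marks 50% less growth.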 The source made the active and inactive calls. Cut-off read from the data, not from the text of the source: active = GI50 up to about 1.1 µM and inactive = higher. Where only a bound is given, the exact number is not on record here.

Among the test systems are SF-539; MCF7; HT-29; T47D; U-251; HCC 2998; UO-31; SF-268; MDA-MB-435; PC-3; MDA-MB-231; ACHN; A549; UACC-257; SF-295; K562; SNB-19; CCRF-CEM; UACC-62; HCT-116.
Holding throughout (experiment): DTP human tumour cell line panel, 48 h

For the compound `O=S(=O)(c1cccc(C(F)(F)F)c1)N1c2ccccc2-n2cccc2C1c1cccnc1` (stereo not given), the GI50 with SF-539 is 28 µM (inactive); in the test with MCF7, 13.9 µM (inactive); in the test on HT-29 it was 18.1 µM (inactive); in the test with T47D, 7.03 µM (inactive); with U-251, 23.9 µM (inactive); in the test with HCC 2998, 24.7 µM (inactive). Moreover, the GI50 in the test on UO-31 was 17.7 µM (inactive); in the test on SF-268, > 43.2 µM (inactive); in the test on MDA-MB-435 it was 6.3 µM (inactive); in the test on PC-3, 10.7 µM (inactive); in the test with MDA-MB-231, > 36.8 µM (inactive); in the test on ACHN, > 46.5 µM (inactive). Further, the GI50 was 17.3 µM (inactive) in the test with A549; > 36.4 µM (inactive) with UACC-257; 71.8 µM (inactive) with SF-295; 9.12 µM (inactive) with K562; 32.6 µM (inactive) in the test on SNB-19; 8.75 µM (inactive) in the test with CCRF-CEM. Moreover, the GI50 was 13.9 µM (inactive) with UACC-62 and 18.8 µM (inactive) in the test with HCT-116.
`CC(=O)OCC1OC(n2c(N)c(C#N)c(-c3ccccc3)c(C#N)c2=S)C(OC(C)=O)C(OC(C)=O)C1OC(C)=O` (stereo not given): the GI50 with SF-539 was > 46.9 µM (inactive); in the test with MCF7, > 100 µM (inactive); with HT-29, > 100 µM (inactive); in the test with T47D, > 81.1 µM (inactive); with U-251 it was 11.2 µM (inactive); with HCC 2998 it was > 100 µM (inactive). Also, the GI50 is 45 µM (inactive) in the test on UO-31; 7.8 µM (inactive) in the test with SF-268; > 100 µM (inactive) in the test with MDA-MB-435; > 100 µM (inactive) in the test with PC-3; 34 µM (inactive) with MDA-MB-231; > 85.7 µM (inactive) with ACHN. In addition, the GI50 in the test on A549 is > 100 µM (inactive); in the test with UACC-257, > 100 µM (inactive); with SF-295 it was 30.8 µM (inactive); in the test on K562 it was > 100 µM (inactive); in the test with SNB-19, 19 µM (inactive); in the test with CCRF-CEM, > 100 µM (inactive). For the same compound, the GI50 in the test with UACC-62 is > 61.8 µM (inactive); in the test on HCT-116, > 100 µM (inactive).
With `COC1=CC(=O)C2=C(C[C@@]3(C)C(=C2)C(CO)=CC[C@H]3O)C1=O`, the GI50 is 18.8 µM (inactive) with SF-539; 16 µM (inactive) in the test with MCF7; 46.1 µM (inactive) in the test on HT-29; 24.6 µM (inactive) in the test on T47D; 21 µM (inactive) in the test on U-251; 36.5 µM (inactive) with HCC 2998. For the same compound, the GI50 in the test with UO-31 was 20 µM (inactive); in the test with SF-268, 18.7 µM (inactive); in the test on MDA-MB-435, 20.7 µM (inactive); with PC-3, 28.2 µM (inactive); in the test on MDA-MB-231, 3.86 µM (inactive); in the test on ACHN, 18.2 µM (inactive). In addition, the GI50 with A549 is 33.7 µM (inactive); in the test on UACC-257, 18.6 µM (inactive); with SF-295 it was 22 µM (inactive); in the test on K562 it was 2.57 µM (inactive); with SNB-19, 68.1 µM (inactive); in the test with CCRF-CEM, 4.04 µM (inactive). Further, the GI50 is 17.6 µM (inactive) in the test on UACC-62 and 18.7 µM (inactive) with HCT-116.
Regarding `S=C(N/N=C\c1ccccn1)N(Cc1ccccn1)Cc1ccccn1`, the GI50 was 4.68 µM (inactive) in the test on SF-539; 0.111 µM (active) in the test with MCF7; 0.0822 µM (active) in the test on HT-29; 1.46 µM (inactive) in the test on T47D; 0.195 µM (active) in the test with U-251; 7.03 µM (inactive) with HCC 2998. Besides, the GI50 in the test on UO-31 is 1.26 µM (inactive); in the test with SF-268, 0.431 µM (active); in the test with MDA-MB-435 it was 4.45 µM (inactive); with PC-3 it was 6.89 µM (inactive); in the test on MDA-MB-231 it was 0.419 µM (active); in the test with ACHN, 0.316 µM (active). For the same compound, the GI50 in the test with A549 is 2.3 µM (inactive); in the test on UACC-257, 4.82 µM (inactive); with SF-295 it was 1.65 µM (inactive); in the test on K562, 0.205 µM (active); in the test on SNB-19, 3.47 µM (inactive); in the test on CCRF-CEM, < 0.019 µM (active). Moreover, the GI50 with UACC-62 is 2.08 µM (inactive); with HCT-116, 0.557 µM (active).
In the case of `CC(C)(C)CC(C)(C)N/C(N)=N/O`, the GI50 is > 60.8 µM (inactive) in the test on SF-539; 8.79 µM (inactive) in the test with MCF7; > 100 µM (inactive) in the test with HT-29; > 32.7 µM (inactive) with T47D; > 100 µM (inactive) in the test with U-251; > 100 µM (inactive) in the test with HCC 2998. The GI50 with UO-31 was > 21.7 µM (inactive); in the test with SF-268, > 89.3 µM (inactive); with MDA-MB-435 it was > 100 µM (inactive); with PC-3 it was 15.1 µM (inactive); in the test on MDA-MB-231 it was > 100 µM (inactive); with ACHN it was 6.71 µM (inactive). The GI50 in the test with A549 was > 100 µM (inactive); in the test on UACC-257, 41.4 µM (inactive); with SF-295, > 100 µM (inactive); with K562 it was 28.8 µM (inactive); in the test on SNB-19, > 100 µM (inactive); in the test with CCRF-CEM, > 100 µM (inactive). Besides, the figures for the GI50 in the test with UACC-62 and with HCT-116 were > 100 µM (inactive) and 9.71 µM (inactive), respectively.
Turning to `C=CCOC(=O)N1c2ccc(O)cc2[C@@]23O[C@@]24[C@@H]1C#C/C=C\C#C[C@]3(O)C(=O)C[C@@H]4C`, the GI50 in the test on SF-539 is 83.8 µM (inactive); with MCF7, 61.8 µM (inactive); in the test with HT-29 it was 43.5 µM (inactive); with T47D, > 100 µM (inactive); in the test with U-251, 95.9 µM (inactive); in the test with HCC 2998, > 100 µM (inactive). Moreover, the GI50 in the test with UO-31 was 54.3 µM (inactive); in the test on SF-268 it was 79.1 µM (inactive); with MDA-MB-435, 27.4 µM (inactive); with PC-3, 34.8 µM (inactive); in the test with MDA-MB-231, > 100 µM (inactive); in the test with ACHN it was 28.2 µM (inactive). Moreover, the GI50 in the test with A549 was 32 µM (inactive); in the test on UACC-257, > 100 µM (inactive); in the test on SF-295 it was > 100 µM (inactive); with K562, 59.7 µM (inactive); in the test with SNB-19, > 100 µM (inactive); in the test on CCRF-CEM, 28.4 µM (inactive). Also, the GI50 in the test with UACC-62 is 99.8 µM (inactive); with HCT-116, 51.5 µM (inactive).
In the case of `O=[N+]([O-])c1ccc(-n2nc3ccc4c(no[n+]4[O-])c3[n+]2[O-])c([N+](=O)[O-])c1`, the GI50 in the test with SF-539 is 6.15 µM (inactive); in the test with MCF7, 1.9 µM (inactive); in the test with HT-29, 4.69 µM (inactive); in the test on T47D it was 2.49 µM (inactive); in the test on U-251, 2.77 µM (inactive); in the test with HCC 2998, 3.3 µM (inactive). Also, the GI50 with UO-31 was 5.27 µM (inactive); with SF-268, 5.05 µM (inactive); in the test on MDA-MB-435 it was 2.71 µM (inactive); in the test with PC-3, 8 µM (inactive); with MDA-MB-231 it was 2.27 µM (inactive); in the test with ACHN it was 2.45 µM (inactive). For the same compound, the GI50 in the test on A549 is 16 µM (inactive); in the test on UACC-257, 1.75 µM (inactive); in the test with SF-295, 4.53 µM (inactive); in the test on K562, 2.14 µM (inactive); in the test with SNB-19, 6.24 µM (inactive); with CCRF-CEM it was 0.938 µM (active). Besides, the GI50 in the test with UACC-62 is 2.73 µM (inactive); in the test with HCT-116, 1.91 µM (inactive).
